# In patent US20250304623A1, “PEPTIDES FOR INTRACELLULAR DELIVERY” (UNIVERSIDADE DE SANTIAGO DE COMPOSTELA, priority 2022, published 2025):
# *: point of attachment. NHNH2 = NN*
# Columns and labels:
# A549 cells = assay: EGFP mRNA delivery, robotic library screening, A549; assay type: cell-based
# Description: Cells were seeded in a 96 well plate the day before the experiment at a concentration of 50,000 cell/mL (100 μL/w) in DMEM+10% FBS+1% Gln-Abt. For robotic library screening, the delivery of EGFP-mRNA (from TriLink, fully substituted with 5-methoxyuridine, capped and polyadenylated; TriLink, CleanCap® EGFP mRNA (5moU), ref. L-7201) in six different cell lines was performed. Amphiphilic molecule stock solutions were prepared in DMSO as described above and diluted in DMEM to afford a range of concentrations. The solutions of EGFP-mRNA/amphiphilic molecule complexes were freshly prepared prior to the transfection experiments. 35 μL of the corresponding amphiphile were added to 10 μL of a solution of EGFP-mRNA at 10 ng/μL in DMEM. The mixture was shaken for 30 min at room temperature before the addition to the cells. The cell medium was aspirated, and cells were washed with PBS twice. Cells were covered with 39 μL of DMEM and 11 μL of the complex's solution were added to the cells and incubated for 4 h (final concentration of peptide=2.5, 5 and 10 μM; final concentration of EGFP-mRNA=25 ng/well). After the incubation, the medium was replaced by 100 μL of fresh DMEM supplemented with 10% FBS. The total EGFP fluorescence was quantified after 72 h in a well plate reader. Amphiphile transfection efficiency was compared and normalized to Lipofectamine® MessengerMax efficiency (value of 1 in Tables 1-5 and 7; double underlined numbers). All experiments were done in triplicate.
# Tables 1-7: RLuc (pDNA) or EGFP (mRNA) expression levels were normalized to Lipofectamine reagents (value=1) and expressed as fold-times signal increase. In the case of siRNA, the siRNA treated cells fluorescence was compared with siMOCK control fluorescence, while Cas9-RNP mediated knockout was measured against the fluorescence of untreated cells. In both siRNA and Cas9-RNP, values are expressed as % fluorescence reduction. Amphiphile concentration was 5 μM in all cases. All experiments were performed in triplicate.
# Tables 14-19 show the mean (triplicates) fluorescence intensity measured after the transfection of EGFP mRNA by different amphiphiles at different concentrations in a variety of cell lines. Background fluorescence values, accounted by untreated control cells, were subtracted for processing.
# [1] = tested on: Hek293 cells expressing EGFP; assay: Cas9-RNP delivery against EGFP (gene editing, plate reader), Hek293; assay type: cell-based
# Description: To generate an EGFP expressing HeLa cell line, HeLa cells were transfected with EGFP pDNA (pEGFP-C1, Clontech) and stable transfectants were selected with 400 μg/mL of G-418 (Millipore). Green clones were selected by epifluorescence microscopy and tested for EGFP expression stability through several passages. […] All other EGFP-expressing cell lines were obtained in a similar way from parent non-EGFP-expressing cell lines.
# Cells expressing EGFP were seeded in a 96 well plate the day before the experiment at a concentration of 50,000 cell/mL (100 μL/w) in DMEM+10% FBS+1% Gln-Abt. For robotic library screening, the delivery of Cas9-RNP against EGFP (RNP designed to knock-out the gene encoding for the enhanced green fluorescent protein (EGFP)) was performed. For RNP assembly, 9.2 μL of crRNA and 9.2 μL of tracrRNA were mixed in 211.6 μL of Nuclease-Free Duplex Buffer (IDT), incubated for 5 min at 95° C. and slowly cooled at rt (see I. Lostalé-Seijo, et al. Peptide/Cas9 nanostructures for ribonucleoprotein cell membrane transport and gene edition, Chem. Sci., 2017). Cas9 protein was dissolved in DMEM at a final concentration of 4 μM and equal volumes of the RNA complex and Cas9 were mixed and incubated for 5 min at rt. 75 μL of the corresponding amphiphile concentrations were added to 5 μL of RNP at 2 μM. The mixture was shaken for 30 min at room temperature before the addition to the cells. The cell medium was aspirated, and cells were washed twice with PBS. Cells were covered with 30 μL of DMEM and 20 μL of the RNP/amphiphile complexes were added to the cells (final peptide concentrations=2.5, 5 and 10 μM; final Cas9-RNP concentration=50 nM) and incubated for 4 h. After the incubation, the medium was replaced by 100 μL of fresh DMEM supplemented with 10% FBS. The total EGFP fluorescence was quantified after 72 h in a plate reader (FIG. 2, Table 1 (right) and Table 6). All experiments were done in triplicate. […]
# Tables 26-31 show the mean (triplicates) percentage of gene editing, accounted by GFP fluorescence intensity decrease (% of reduction), measured after the transfection of Cas9-RNP by different amphiphiles at different concentrations in a variety of cell lines. Background values, accounted by untreated control cells, were subtracted for processing.
Substance,"mean fluorescence intensity (EGFP mRNA) (A549 cells; Myristoleyl, 5 μM)","mean fluorescence intensity (EGFP mRNA) (A549 cells; Myristoleyl, 10 μM)","mean fluorescence intensity (EGFP mRNA) (A549 cells; Oleyl, 2.5 μM)","mean fluorescence intensity (EGFP mRNA) (A549 cells; Oleyl, 5 μM)","mean fluorescence intensity (EGFP mRNA) (A549 cells; Oleyl, 10 μM)","mean fluorescence intensity (EGFP mRNA) (A549 cells; Petroselinyl, 2.5 μM)","mean fluorescence intensity (EGFP mRNA) (A549 cells; Petroselinyl, 5 μM)","mean fluorescence intensity (EGFP mRNA) (A549 cells; Petroselinyl, 10 μM)","percentage of gene editing, GFP fluorescence intensity decrease (% of reduction) ([1]; Dodecanal, 5 μM) [%]","percentage of gene editing, GFP fluorescence intensity decrease (% of reduction) ([1]; Dodecanal, 10 μM) [%]","percentage of gene editing, GFP fluorescence intensity decrease (% of reduction) ([1]; Oleyl, 10 μM) [%]","percentage of gene editing, GFP fluorescence intensity decrease (% of reduction) ([1]; Petroselinyl, 5 μM) [%]","mean fluorescence intensity (EGFP mRNA) (A549 cells; Dodecanal, 2.5 μM)","mean fluorescence intensity (EGFP mRNA) (A549 cells; Myristoleyl, 2.5 μM)","percentage of gene editing, GFP fluorescence intensity decrease (% of reduction) ([1]; Palmitoleyl, 5 μM) [%]","percentage of gene editing, GFP fluorescence intensity decrease (% of reduction) ([1]; Palmitoleyl, 10 μM) [%]","percentage of gene editing, GFP fluorescence intensity decrease (% of reduction) ([1]; Palmitoleyl, 15 μM) [%]","percentage of gene editing, GFP fluorescence intensity decrease (% of reduction) ([1]; Petroselinyl, 10 μM) [%]",also measured
"Ac-RK*LRRK*LRK*-NH2 (Ac-RK(NHNH2)LRRK(NHNH2)LRK(NHNH2)-NH2; not fully specified; printed as Ac-RK*LRRK*LRK*-NH2; also: K*2,K*6,K*9: native or modified lysine (ε-amide to a linker)) [Peptide 9.3]",219,−17,89,399,139,94,789,349,−11,−53,−5,−12,,,,,,,"percentage of gene editing, GFP fluorescence intensity decrease (% of reduction) ([1]; Oleyl, 5 μM): 12%"
"Ac-RK*LRRLLRK*-NH2 (Ac-RK(NHNH2)LRRLLRK(NHNH2)-NH2; not fully specified; printed as Ac-RK*LRRLLRK*-NH2; also: K*2,K*9: native or modified lysine (ε-amide to a linker)) [Peptide 9.2]",205,−79,,,,,,,−38,−55,,,,,,,,,
"Ac-RRHK*RLK*RRLK*RL-NH2 (Ac-RRHK(NHNH2)RLK(NHNH2)RRLK(NHNH2)RL-NH2; not fully specified; printed as Ac-RRHK*RLK*RRLK*RL-NH2; also: K*4,K*7,K*11: native or modified lysine (ε-amide to a linker)) [13(Leu-His)]",370,569,,,,1141,437,245,,,−4,16,2133,882,−8,−33,−39,7,"mean fluorescence intensity (EGFP mRNA) (A549 cells; Dodecanal, 5 μM): 803; mean fluorescence intensity (EGFP mRNA) (A549 cells; Dodecanal, 10 μM): 170; mean fluorescence intensity (EGFP mRNA) (A549 cells; Palmitoleyl, 2.5 μM): 1406; mean fluorescence intensity (EGFP mRNA) (A549 cells; Palmitoleyl, 5 μM): 916; mean fluorescence intensity (EGFP mRNA) (A549 cells; Palmitoleyl, 10 μM): 617; percentage of gene editing, GFP fluorescence intensity decrease (% of reduction) ([1]; Myristoleyl, 10 μM): −16%; percentage of gene editing, GFP fluorescence intensity decrease (% of reduction) ([1]; Petroselinyl, 15 μM): −32%"
Ac-RRLK*RLK*RRLK*RL-NH2 [Peptide 13.3],170,240,214,,,245,117,107,18,−18,,,298,,−7,,,,"percentage of gene editing, GFP fluorescence intensity decrease (% of reduction) ([1]; Myristoleyl, 5 μM): −12%; percentage of gene editing, GFP fluorescence intensity decrease (% of reduction) ([1]; Myristoleyl, 15 μM): −48%"
"Ac-RRLK*RLLRRLK*RL-NH2 (Ac-RRLK(NHNH2)RLLRRLK(NHNH2)RL-NH2; not fully specified; printed as Ac-RRLK*RLLRRLK*RL-NH2; also: K*4,K*11: native or modified lysine (ε-amide to a linker)) [Peptide 13.2]",,,136,160,22,,,,−23,−26,−10,,,,,,,,"percentage of gene editing, GFP fluorescence intensity decrease (% of reduction) ([1]; Oleyl, 15 μM): −13%"
"Ac-RRLK*RLLRRLK*RLK*RRL-NH2 (Ac-RRLK(NHNH2)RLLRRLK(NHNH2)RLK(NHNH2)RRL-NH2; not fully specified; printed as Ac-RRLK*RLLRRLK*RLK*RRL-NH2; also: K*4,K*11,K*14: native or modified lysine (ε-amide to a linker)) [Peptide 17.3]",309,,,,,791,440,274,,,,2,,563,−19,−32,−34,−37,
